Measurements published in US20060019855A1, “Composition for a bactericidal, disinfecting, and cleansing foam agent” (priority 2004, published 2006).

Key:
Experiment in all cases: Antibacterial effect test
[1] = system: Escherichia coli FMK1254; type: cell-based; settings: for antibacterial effects (in words): E. coli
Protocol: (§1) Antibacterial Effect Test
(§2) Composition of Example 1: The composition of Example 1 was filled in a pump foamer (manufactured by DAIWA CAN COMPANY).
(§3) Ethanol gel: A hand cleansing gel made by […] CO. LTD. (ethanol content: 70%, formulated with aloe extract).
(§4) MacConkey Agar (Difco) was employed for E. coli FMK1254 and Pathogenic E. coli 0157:H7 SAKAI.
(§5) 1) The respective strains were incubated overnight in TSB at 37° C. The bacterial suspensions were diluted with physiologic saline to have a concentration of approximately 10^4 CFU/ml each.
(§6) 2) Next, 4.5 g each of the test samples were added to dishes (Composition of Example 1 and Control composition were added in a foamed state.). Thereafter, 0.5 ml each of the bacterial suspensions obtained in the process 1) was inoculated thereinto and mixed well. For every combination (12 combinations in total) of the four test samples and the three bacterial suspensions, two sample dishes were prepared in this manner.
(§7) 3) Regarding the first ones of these sample dishes, the number of bacteria was counted immediately after inoculation of the bacterial suspensions, and also after one and two hours of incubation at 37° C. For incubation, the dishes were put in an incubator, with the lids slightly open. To count the number of bacteria of each strain, two agar media were respectively inoculated with 0.1 ml of the bacterial suspension and incubated for 24 hours at 37° C. Later, the number of colonies in both agar media was counted and averaged.
(§8) 4) The second ones of the sample dishes prepared in the process 2) were incubated for two hours at 37° C. after inoculation of the bacterial suspensions. Thereafter, 0.5 ml each of the corresponding bacterial suspensions was again inoculated thereinto and mixed well. The number of bacteria was counted immediately after reinoculation of the bacterial suspensions, and also after one and two hours of incubation at 37° C., in the same manner as in the process 3).
(§9) In Tables 2-4, “B” indicates the theoretical number of bacteria in the mixtures of the bacterial suspensions and the test samples. The symbol “*” indicates reinoculation.

[2] = system: Pathogenic E. coli O157:H7 Sakai; type: cell-based, Escherichia coli; settings: for number of bacteria: Pathogenic E. coli O157:H7 Sakai; for antibacterial effects (in words): pathogenic E. coli
Protocol: as §1, §2
Ethanol gel: A hand cleansing gel made by FUMAKILLA CO. LTD. (ethanol content: 70%, formulated with aloe extract).
Pathogenic Escherichia coli 0157:H7 Sakai
as §4, §5, §6, §7, §8, §9

[3] = system: Staphylococcus aureus ATCC25923; type: cell-based; settings: for antibacterial effects (in words): S. aureus
Protocol: as §1, §2, §3
Staphylococcus aureus ATCC25923
Nutrient Agar (Difco) was employed for S. aureus ATCC25923.
as §5, §6, §7, §8, §9

[4] = after two hours of reinoculation

CCO [70% Ethanol, Ethanol]
number of bacteria ([1]; E. coli FMK1254, 1 hour at 37° C. after reinoculation): 4095 CFU/ml
number of bacteria ([1]; E. coli FMK1254, 1 hour of incubation at 37° C. after inoculation): ≦9 CFU/ml
number of bacteria ([1]; E. coli FMK1254, 2 hours at 37° C. after reinoculation): 2195 CFU/ml
number of bacteria ([1]; E. coli FMK1254, 2 hours of incubation at 37° C. after inoculation): ≦9 CFU/ml
number of bacteria ([1]; E. coli FMK1254, immediately after inoculation (0)): ≦9 CFU/ml
number of bacteria ([1]; E. coli FMK1254, immediately after reinoculation (0*)): 2280 CFU/ml
antibacterial effects (in words) ([1]; after two hours of inoculation): excellent
antibacterial effects (in words) [1, 4]: totally lost
number of bacteria ([2]; 1 hour at 37° C. after inoculation): ≦9 CFU/ml
number of bacteria ([2]; 1 hour at 37° C. after reinoculation): ≧30000 CFU/ml
number of bacteria ([2]; 2 hours at 37° C. after inoculation): ≦9 CFU/ml
number of bacteria ([2]; 2 hours at 37° C. after reinoculation): ≧30000 CFU/ml
number of bacteria ([2]; immediately after inoculation (0)): ≦9 CFU/ml
number of bacteria ([2]; immediately after reinoculation (0*)): ≧30000 CFU/ml
antibacterial effects (in words) ([2]; after two hours of inoculation): excellent
antibacterial effects (in words) [2, 4]: totally lost
number of bacteria ([3]; S. aureus ATCC25923, 1 hour at 37° C. after inoculation): ≦9 CFU/ml
number of bacteria ([3]; S. aureus ATCC25923, 1 hour at 37° C. after reinoculation): 75 CFU/ml
number of bacteria ([3]; S. aureus ATCC25923, 2 hours at 37° C. after inoculation): ≦9 CFU/ml
number of bacteria ([3]; S. aureus ATCC25923, 2 hours at 37° C. after reinoculation): 45 CFU/ml
number of bacteria ([3]; S. aureus ATCC25923, immediately after inoculation (0)): ≦9 CFU/ml
number of bacteria ([3]; S. aureus ATCC25923, immediately after reinoculation (0*)): 180 CFU/ml
antibacterial effects (in words) ([3]; after two hours of inoculation): excellent
antibacterial effects (in words) [3, 4]: not sufficient
